# Assay results: US20060154990A1, “Use of MEK inhibitors in treating abnormal cell growth” (AGOURON PHARMACEUTICALS, INC., priority 2004, published 2006)
# Values joined by “and” are separate entries in the source; they are usually repeats but may differ in a detail not shown here. Equal values may be shown once. Marks after values point to notes of the source that are not given here.
# Experiments:
# [1] = tested on: advanced cancer (breast, colon, NSCLC, melanoma); experiment: Phase 1/2 clinical study: tumor response (RECIST); conditions: for Clinical Response: individual patient
# [2] = Metabolites of [14C] Compound 1 in liver microsomes; type: in vitro ADME, human; conditions: [C-14] Compound 1 10 μM, 90 mins
# Description: (§1) Incubations were performed in hepatocytes for 3 hours and liver microsomes for 1.5 hours and were stopped with the addition of methanol. HPLC, in conjuction with ionspray 3D iontrap mass spectrometry, and simultaneous radioactive monitoring were used to detect and identify the resulting metabolites.
# This acid cleavage product is further metabolized to form hydroxylated (M 11, 16% in rat) and hydroxylated, defluorinated products (M 17, 19% in rat).
# [3] = tested on: C26 mouse colon carcinoma; experiment: Antitumor activity against C26 mouse colon carcinoma
# [4] = tested on: RXF-393 renal cell carcinoma; experiment: Antitumor activity in RXF-393 tumor model; type: in vivo, mice; conditions: oral 25 mg/kg once a day, euthanized on day 8 of dosing
# [5] = tested on: MiaPaCa-2 pancreatic xenograft; experiment: Antitumor activity in MiaPaCa-2 tumor model; type: in vivo, mice; conditions: oral 25 mg/kg once a day for 14 days
# [6] = Metabolites of [14C] Compound 1 in cryopreserved hepatocytes; type: in vitro ADME, rat; conditions: [C-14] Compound 1 10 μM, 180 mins
# Description: as §1
# Metabolite identification of radiolabeled Compound 1 was performed after incubation with rat, dog, monkey and human cryopreserved hepatocytes and liver microsomes. […] Besides glucuronidation, metabolites derived from other clearance pathways are also observed. For instance, M 15 (acid cleavage product) accounts for 11% of the total radioactivity in the human chromatogram.
# [7] = tested on: ERK phosphorylation in HCT-116 colon cells; experiment: cells; conditions: Homo sapiens, HCT-116, 1 h, read-out: Cellular IC50
# [8] = clinical; conditions: human, plasma, oral
# Description: Pharmacokinetic data are presented for the first 38 subjects.
# Blood samples were collected from patients into a purple-top potassium EDTA Vacutainer tube. Following mixing with gentle inversion (8-10 times), tubes were centrifuged within 20 minutes at 1000×g for 15 minutes, to harvest plasma. Plasma samples were stored at −20° C. until analysis.
# The following results are based on preliminary pharmacokinetic parameters from the 38 subjects, estimated using nominal collection times and quality-controlled, non quality-assured bioanalytical data. Pharmacokinetic parameters were determined by the non-compartmental method using WINNONLIN Professional Edition (Version 4.1). […] The maximum observed concentration (Cmax) was obtained by inspection of the concentration data. The time to reach the Cmax was the first time at which Cmax is observed and obtained by inspection of the data. The pre-dose concentration (Ctrough) was obtained by inspection of the concentration data.
# [9] = C26, MTD 25 mg/kg/d oral 14 days
# [10] = C26, oral BID D9-22, 1.56 mg/kg/dose
# [11] = C26, oral BID D9-22, 3.125 mg/kg/dose
# [12] = C26, oral BID D9-22, 6.25 mg/kg/dose
# [13] = C26, oral BID D9-22, 12.5 mg/kg/dose
# [14] = C26, oral BID D9-22, 12.5 mg/kg/dose (toxic)
# [15] = C26, oral QD D9-22, 3.125 mg/kg/dose
# [16] = C26, oral QD D9-22, 6.25 mg/kg/dose
# [17] = C26, oral QD D9-22, 12.5 mg/kg/dose
# [18] = C26, oral QD D9-22, 25 mg/kg/dose
# [19] = C26 colon, oral 25 mg/kg once a day for 14 days
# [20] = Colon26, 25 mg/kg PO QD Days 11-24 (MTD)
# [21] = Colon26, 100 mg/kg IV QD Days 8-12, 15-19 (MTD)
smiles,measurement,setting,value
"O=C(NOC[C@H](O)CO)c1ccc(F)c(F)c1Nc1ccc(I)cc1F [Compound 1, N-[(R)-2,3-dihydroxy-propoxy]-3,4-difluoro-2-(2-fluoro-4-iodo-phenylamino)-benzamide]",Clinical Response,"[1]; 2 mg BID, colon, cell wraps: stable disease",stable
same,Clinical Response,"[1]; 2 mg BID, melanoma, cell wraps: stable disease",stable
same,Clinical Response,"[1]; 4 mg BID, lung, cell wraps: stable disease",stable
same,Clinical Response,"[1]; 4 mg BID, melanoma, cell wraps: stable disease",stable
same,Clinical Response,"[1]; 15 mg BID, breast, cell wraps: stable disease",stable
same,Clinical Response,"[1]; 20 mg BID continuous, melanoma, cell wraps: stable disease",stable
same,Clinical Response,"[1]; 20 mg BID, melanoma, cell wraps: partial response",partial
same,Clinical Response,"[1]; 30 mg BID, melanoma, cell wraps: stable disease",stable
same,Patients with stable disease,[1]; of 42 patients treated,10
same,Partial responses,"[1]; of 42 patients treated, melanoma",2
same,% ROI Human,[2],77.36%
same,animals showing complete response,[3]; [9],70%
same,animals showing either a complete or partial response,[3]; [9],100%
same,animals showing partial response,[3]; [9],30%
same,CR (complete response),[3]; [10],4 of 5 and 4/5
same,Net Log10 kill,[3]; [10],0.0
same,Non-specific Deaths,[3]; [10],0/5
same,PR (partial response),[3]; [10],1/5
same,T − C,[3]; [10],13.1 days
same,Tumor Free,[3]; [10],0/5
same,CR (complete response),[3]; [11],4/5
same,Net Log10 kill,[3]; [11],0.3
same,Non-specific Deaths,[3]; [11],0/5
same,PR (partial response),[3]; [11],1/5
same,T − C,[3]; [11],15.2 days
same,Tumor Free,[3]; [11],0/5
same,CR (complete response),[3]; [12],5/5
same,Net Log10 kill,[3]; [12],0.3
same,Non-specific Deaths,[3]; [12],0/5
same,PR (partial response),[3]; [12],0/5
same,T − C,[3]; [12],15.7 days
same,Tumor Free,[3]; [12],0/5
same,Net Log10 kill,[3]; [13],Toxic
same,Non-specific Deaths,[3]; [13],4/5^h
same,T − C,[3]; [13],Toxic
same,Tumor Free,[3]; [13],Toxic
same,CR (complete response),[3]; [14],5/5 Toxic
same,PR (partial response),[3]; [14],0/5 Toxic
same,CR (complete response),[3]; [15],1 of 5 and 1/5
same,Net Log10 kill,[3]; [15],−0.1
same,Non-specific Deaths,[3]; [15],0/5
same,PR (partial response),[3]; [15],4/5
same,T − C,[3]; [15],12.1 days
same,Tumor Free,[3]; [15],0/5
same,CR (complete response),[3]; [16],3/5
same,Net Log10 kill,[3]; [16],0.0
same,Non-specific Deaths,[3]; [16],0/5
same,PR (partial response),[3]; [16],2/5
same,T − C,[3]; [16],12.9 days
same,Tumor Free,[3]; [16],0/5
same,CR (complete response),[3]; [17],5/5
same,Net Log10 kill,[3]; [17],0.2
same,Non-specific Deaths,[3]; [17],0/5
same,PR (partial response),[3]; [17],0/5
same,T − C,[3]; [17],15.0 days
same,Tumor Free,[3]; [17],0/5
same,CR (complete response),[3]; [18],5/5
same,Net Log10 kill,[3]; [18],0.3
same,Non-specific Deaths,[3]; [18],0/5
same,PR (partial response),[3]; [18],0/5
same,T − C,[3]; [18],15.3 days
same,Tumor Free,[3]; [18],0/5
same,CR (complete responder),[3]; [19],7/10
same,PR (partial responder),[3]; [19],3/10
same,T − C,[3]; [19],15.4 days
same,Tumor Free,[3]; [19],0/10
same,Tumor growth delay,"[3]; C26 tumor, 25 mg/kg oral once a day for 14 days (MTD)",15.4 days
same,Total daily dose producing 70% complete tumor responses,"[3]; C26 tumor, oral for 14 days",25 mg/kg
same,CR,[3]; [20],10/10
same,Deaths,[3]; [20],0/10
same,Net Log Kill,[3]; [20],0.2
same,PR,[3]; [20],0/10
same,T − C,[3]; [20],12.6 days
same,CR,[3]; [21],9/10
same,Deaths,[3]; [21],1/10
same,Net Log Kill,[3]; [21],0.6
same,PR,[3]; [21],1/10
same,T − C,[3]; [21],15.8 days
same,CR (complete responder),[4],0/10
same,PR (partial responder),[4],0/10
same,Tumor Free,[4],0/10
same,CR (complete responder),[5],1/9
same,PR (partial responder),[5],0/9
same,T − C,[5],16.8 days
same,Tumor Free,[5],0/9
same,% ROI Rat,[6],72.06%
same,IC50,[7],0.28 nM
same,half-life,[8],5 to 14 h
same,Cmax,[8]; 1 mg,0.0411 µg/mL
same,Tmax,[8]; 1 mg,1 h
same,half-life,[8]; 1 mg,13.9 h
same,Cmax,[8]; 2 mg,0.152 µg/mL
same,Tmax,[8]; 2 mg,1 h
same,AUC(0-t),[8]; 4 mg,1.58 µg·h/mL
same,Cmax,[8]; 4 mg,0.208 µg/mL
same,Tmax,[8]; 4 mg,1 h
same,concentration at 21 day,[8]; 4 mg,0.082 µg/mL
same,half-life,[8]; 4 mg,7.6 h
same,Cmax,[8]; 15 mg,0.706 µg/mL
same,Tmax,[8]; 15 mg,1 h
same,half-life,[8]; 15 mg,12.6 h
same,AUC(0-t),[8]; 20 mg,6.99 µg·h/mL
same,Cmax,[8]; 20 mg,0.766 µg/mL
same,Tmax,[8]; 20 mg,2 h
same,concentration at 21 day,[8]; 20 mg,0.44 µg/mL
same,half-life,[8]; 20 mg,8.3 h
same,AUC(0-t),[8]; 30 mg,12.5 µg·h/mL
same,Cmax,[8]; 30 mg,1.64 µg/mL
same,Tmax,[8]; 30 mg,2 h
same,concentration at 21 day,[8]; 30 mg,0.5 µg/mL
same,half-life,[8]; 30 mg,4.8 h
